Converted amounts (≈) assume the structure as drawn.
How the values were obtained:
[1] = system: Staphylococcus aureus; assay: Antibacterial activity against methicillin resistant Staphylococcus aureus ATCC 33591 assessed as inhibition of bacterial growth incubated for 18 to 24 hrs by broth microdilution method; format: functional; details: time 18-24 hrs
[2] = system: Staphylococcus aureus; assay: Antibacterial activity against Staphylococcus aureus ATCC 29213 assessed as inhibition of bacterial growth incubated for 18 to 24 hrs by broth microdilution method; format: functional; details: time 18-24 hrs
[3] = system: Staphylococcus epidermidis; assay: Antibacterial activity against methicillin resistant Staphylococcus epidermidis clinical isolate 19-5 assessed as inhibition of bacterial growth incubated for 18 to 24 hrs by broth microdilution method; format: functional; details: time 18-24 hrs
[4] = system: Staphylococcus epidermidis; assay: Antibacterial activity against methicillin resistant Staphylococcus epidermidis clinical isolate 19-6 assessed as inhibition of bacterial growth incubated for 18 to 24 hrs by broth microdilution method; format: functional; details: time 18-24 hrs
[5] = system: Escherichia coli; assay: Antibacterial activity against Escherichia coli ATCC BAA-2523 assessed as inhibition of bacterial growth incubated for 18 to 24 hrs by broth microdilution method; format: functional; details: time 18-24 hrs
[6] = system: Escherichia coli; assay: Antibacterial activity against Escherichia coli NCTC 13353 assessed as inhibition of bacterial growth incubated for 18 to 24 hrs by broth microdilution method; format: functional; details: time 18-24 hrs
[7] = system: Escherichia coli; assay: Antibacterial activity against Escherichia coli clinical isolate 19-2 assessed as inhibition of bacterial growth incubated for 18 to 24 hrs by broth microdilution method; format: functional; details: time 18-24 hrs
[8] = system: Escherichia coli; assay: Antibacterial activity against KPC producing Escherichia coli ATCC BAA-2340 assessed as inhibition of bacterial growth incubated for 18 to 24 hrs by broth microdilution method; format: functional; details: time 18-24 hrs
[9] = system: Klebsiella pneumoniae; assay: Antibacterial activity against carbapenem resistant Klebsiella pneumoniae clinical isolate 19-15 assessed as inhibition of bacterial growth incubated for 18 to 24 hrs by broth microdilution method; format: functional; details: time 18-24 hrs
[10] = system: Klebsiella pneumoniae; assay: Antibacterial activity against carbapenem resistant Klebsiella pneumoniae clinical isolate 19-17 assessed as inhibition of bacterial growth incubated for 18 to 24 hrs by broth microdilution method; format: functional; details: time 18-24 hrs
[11] = system: Klebsiella pneumoniae; assay: Antibacterial activity against KPC producing Klebsiella pneumoniae ATCC BAA-1705 assessed as inhibition of bacterial growth incubated for 18 to 24 hrs by broth microdilution method; format: functional; details: time 18-24 hrs
[12] = system: Pseudomonas aeruginosa; assay: Antibacterial activity against Pseudomonas aeruginosa clinical isolate 19-1 assessed as inhibition of bacterial growth incubated for 18 to 24 hrs by broth microdilution method; format: functional; details: time 18-24 hrs
[13] = system: Pseudomonas aeruginosa; assay: Antibacterial activity against carbapenem resistant Pseudomonas aeruginosa clinical isolate 19-3 assessed as inhibition of bacterial growth incubated for 18 to 24 hrs by broth microdilution method; format: functional; details: time 18-24 hrs
[14] = system: Pseudomonas aeruginosa; assay: Antibacterial activity against carbapenem resistant Pseudomonas aeruginosa clinical isolate 17-1 assessed as inhibition of bacterial growth incubated for 18 to 24 hrs by broth microdilution method; format: functional; details: time 18-24 hrs
[15] = system: Pseudomonas aeruginosa; assay: Antibacterial activity against Pseudomonas aeruginosa ATCC 27853 assessed as inhibition of bacterial growth incubated for 18 to 24 hrs by broth microdilution method; format: functional; details: time 18-24 hrs
[16] = system: Acinetobacter baumannii; assay: Antibacterial activity against carbapenem resistant Acinetobacter baumannii clinical isolate 19-8 assessed as inhibition of bacterial growth incubated for 18 to 24 hrs by broth microdilution method; format: functional; details: time 18-24 hrs
[17] = system: Acinetobacter baumannii; assay: Antibacterial activity against oxacillinase-27 producing Acinetobacter baumannii NCTC 13304 assessed as inhibition of bacterial growth incubated for 18 to 24 hrs by broth microdilution method; format: functional; details: time 18-24 hrs
[18] = Cytotoxicity against human HK-2 cells assessed as inhibition of cell growth incubated for 72 hrs by CCK-8 assay; format: toxicity, cell-based
[19] = Selectivity index, ratio of IC50 for cytotoxicity against human HK-2 cells to MIC for antibacterial activity against Escherichia coli ATCC BAA-2523; format: toxicity, cell-based

| Compound | MIC [1] [µg/mL] | MIC [2] [µg/mL] | MIC [3] [µg/mL] | MIC [4] [µg/mL] | MIC [5] [µg/mL] | MIC [6] [µg/mL] | MIC [7] [µg/mL] | MIC [8] [µg/mL] | MIC [9] [µg/mL] | MIC [10] [µg/mL] | MIC [11] [µg/mL] | MIC [12] [µg/mL] | MIC [13] [µg/mL] | MIC [14] [µg/mL] | MIC [15] [µg/mL] | MIC [16] [µg/mL] | MIC [17] [µg/mL] | IC50 at 72 h [18] [µg/mL] | selectivity ratio [19] |
| --- | --- | --- | --- | --- | --- | --- | --- | --- | --- | --- | --- | --- | --- | --- | --- | --- | --- | --- | --- |
| CCCCCCCCCC(=O)N[C@H](CCN)C(=O)N[C@H]1CCNC(=O)[C@H](Cc2ccccc2)NC(=O)[C@H](CCN)NC(=O)[C@H](CCN)NC(=O)[C@H](Cc2ccccc2)NC(=O)[C@@H](CC(C)C)NC(=O)[C@H](CCN)NC1=O | 16 (≈ 15.1 µM) | 8 (≈ 7.53 µM) | 1 (≈ 0.941 µM) | 1 (≈ 0.941 µM) | 8 (≈ 7.53 µM) | 8 (≈ 7.53 µM) | 4 (≈ 3.77 µM) | 8 (≈ 7.53 µM) | 8 (≈ 7.53 µM) | 8 (≈ 7.53 µM) | 1 (≈ 0.941 µM) | 4 (≈ 3.77 µM) | 4 (≈ 3.77 µM) | 8 (≈ 7.53 µM) | 8 (≈ 7.53 µM) | 16 (≈ 15.1 µM) | 16 (≈ 15.1 µM) | 43.1 (≈ 40.6 µM) | 5.4 |
| CCCCCCC[C@@H](O)CC(=O)N[C@H](CCN)C(=O)N[C@H]1CCNC(=O)[C@H]([C@@H](C)O)NC(=O)[C@H](CCN)NC(=O)[C@H](CCN)NC(=O)[C@H](CC(C)C)NC(=O)[C@@H](CC(C)C)NC(=O)[C@H](CCN)NC1=O | > 64 | > 64 | 16 (≈ 16 µM) | 64 (≈ 64.1 µM) | 4 (≈ 4.01 µM) | 16 (≈ 16 µM) | 8 (≈ 8.01 µM) | 8 (≈ 8.01 µM) | 16 (≈ 16 µM) | 8 (≈ 8.01 µM) | 2 (≈ 2 µM) | 0.5 (≈ 0.501 µM) | 1 (≈ 1 µM) | 0.5 (≈ 0.501 µM) | 0.5 (≈ 0.501 µM) | 64 (≈ 64.1 µM) | 64 (≈ 64.1 µM) | 206 (≈ 206 µM) | 51.5 |
| CCCCCCCCCC(=O)N[C@H](CCN)C(=O)N[C@H]1CCNC(=O)[C@H]([C@@H](C)O)NC(=O)[C@H](CCN)NC(=O)[C@H](CCN)NC(=O)[C@H](CCCCCCCC)NC(=O)[C@@H](CC(C)C)NC(=O)[C@H](CCN)NC1=O | 8 (≈ 7.7 µM) | 8 (≈ 7.7 µM) | 1 (≈ 0.963 µM) | 2 (≈ 1.93 µM) | 1 (≈ 0.963 µM) | 2 (≈ 1.93 µM) | 1 (≈ 0.963 µM) | 1 (≈ 0.963 µM) | 2 (≈ 1.93 µM) | 2 (≈ 1.93 µM) | 2 (≈ 1.93 µM) | 2 (≈ 1.93 µM) | 2 (≈ 1.93 µM) | 4 (≈ 3.85 µM) | 2 (≈ 1.93 µM) | 8 (≈ 7.7 µM) | 4 (≈ 3.85 µM) | 9.1 (≈ 8.76 µM) | 9.1 |
| CC[C@H](C)CCCCC(=O)N[C@H](CCN)C(=O)N[C@H]1CCNC(=O)[C@H](CC(C)C)NC(=O)[C@H](CCN)NC(=O)[C@H](CCN)NC(=O)[C@H](CC(C)C)NC(=O)[C@@H](CC(C)C)NC(=O)[C@H](CCN)NC1=O | > 64 | > 64 | 4 (≈ 4.08 µM) | 16 (≈ 16.3 µM) | 8 (≈ 8.16 µM) | 16 (≈ 16.3 µM) | 32 (≈ 32.6 µM) | 1 (≈ 1.02 µM) | 8 (≈ 8.16 µM) | 8 (≈ 8.16 µM) | 1 (≈ 1.02 µM) | 2 (≈ 2.04 µM) | 2 (≈ 2.04 µM) | 1 (≈ 1.02 µM) | 1 (≈ 1.02 µM) | 8 (≈ 8.16 µM) | 8 (≈ 8.16 µM) | 86.9 (≈ 88.6 µM) | 10.9 |
| CCCCCCCCCC(=O)N[C@H](CCN)C(=O)N[C@H]1CCNC(=O)[C@H]([C@@H](C)O)NC(=O)[C@H](CCN)NC(=O)[C@H](CCN)NC(=O)[C@H](CC(C)C)NC(=O)[C@@H](Cc2ccccc2Cl)NC(=O)[C@H](CCN)NC1=O | > 64 | 64 (≈ 60.9 µM) | 4 (≈ 3.81 µM) | 2 (≈ 1.9 µM) | 2 (≈ 1.9 µM) | 8 (≈ 7.61 µM) | 2 (≈ 1.9 µM) | 2 (≈ 1.9 µM) | 4 (≈ 3.81 µM) | 4 (≈ 3.81 µM) | 2 (≈ 1.9 µM) | 2 (≈ 1.9 µM) | 2 (≈ 1.9 µM) | 64 (≈ 60.9 µM) | 32 (≈ 30.5 µM) | 64 (≈ 60.9 µM) | 32 (≈ 30.5 µM) | 54.6 (≈ 52 µM) | 27.3 |

Source: ChEMBL document CHEMBL5380795, “Design, Synthesis, and Bioactivity Investigation of Cyclic Lipopeptide Antibiotics Containing Eight to Nine Amino Acids” (J Med Chem, 2023)
